Measured values reported in patent publication US20220089541A1, “Compounds for the Treatment of Kinase-Dependent Disorders” (Exelixis, Inc., priority 2019, published 2022).

What was measured:
Met = target: T1, Met (Homo sapiens, UniProt P08581); assay: Met autophosphorylation ELISA in PC-3 cells; type: cell-based; details: PC-3 prostate cancer cells, HGF-stimulated, phospho-Met ELISA, 1 h compound incubation; read-out: c-Met IC50
T1 construct: host or cells: PC-3 prostate cancer cells
Experimental: Example B: Met Autophosphorylation ELISA in PC-3 Cells
PC-3 prostate cancer cells (ATCC #CRL-1435) were seeded at 4×10^4 cells/well onto 24-well plates (Greiner #662165), in DMEM (Thermo Fisher #11995-040) containing 10% FBS (Thermo Fisher #26140-079), 1% MEM NEAA (Thermo Fisher #11140-050), 1% GlutaMax (Thermo Fisher #35050-061), and 1% Penicillin Streptomycin (Thermo Fisher #15140-122). PC-3 cells were incubated at 37° C., 5% CO2 for 24 h and then starved for 3 h in serum-free medium. Test compounds were serially diluted to produce an 8-point dose curve in fresh serum-free medium to a final concentration of 0.3% DMSO (vehicle) and added to the cells and incubated for 1 h. Cells were then stimulated with 100 ng/mL recombinant human HGF (R&D Systems #294-HG-250) for 10 min, washed with cold PBS, and immediately lysed with 130 μL of cold IX lysis buffer [20 mM Tris, 137 mM sodium chloride, 2 mM EDTA, 10% glycerol, 1% NP-40 alternative, 1 mM activated sodium orthovanadate, 1 mM PefaBloc SC (Sigma-Aldrich #11429868001), protease/phosphatase inhibitor tablet (Thermo Fisher #A32959)]. Lysates were clarified by centrifugation and 100 μL/well added into the PathScan phospho-Met (panTyr) Sandwich ELISA (Cell Signaling Technology #7333). Assay was performed according to manufacturer's instructions. Positive control wells (100% activity) contained HGF-stimulated, DMSO-treated cell lysates. Negative control wells (0% activity) contained HGF-stimulated, reference inhibitor-treated cell lysates. IC50 values were calculated by nonlinear regression analysis using a 4-parameter logistic curve fit in ActivityBase XE (IDBS).

AXL = target: T2, AXL (Homo sapiens, UniProt P30530); assay: AXL autophosphorylation ELISA in A-172 cells; type: cell-based; details: A-172 glioblastoma cells, Gas6-stimulated, phospho-AXL ELISA, 1 h compound incubation
T2 construct: host or cells: A-172 glioblastoma cells
T2 sequence (P30530 26-894): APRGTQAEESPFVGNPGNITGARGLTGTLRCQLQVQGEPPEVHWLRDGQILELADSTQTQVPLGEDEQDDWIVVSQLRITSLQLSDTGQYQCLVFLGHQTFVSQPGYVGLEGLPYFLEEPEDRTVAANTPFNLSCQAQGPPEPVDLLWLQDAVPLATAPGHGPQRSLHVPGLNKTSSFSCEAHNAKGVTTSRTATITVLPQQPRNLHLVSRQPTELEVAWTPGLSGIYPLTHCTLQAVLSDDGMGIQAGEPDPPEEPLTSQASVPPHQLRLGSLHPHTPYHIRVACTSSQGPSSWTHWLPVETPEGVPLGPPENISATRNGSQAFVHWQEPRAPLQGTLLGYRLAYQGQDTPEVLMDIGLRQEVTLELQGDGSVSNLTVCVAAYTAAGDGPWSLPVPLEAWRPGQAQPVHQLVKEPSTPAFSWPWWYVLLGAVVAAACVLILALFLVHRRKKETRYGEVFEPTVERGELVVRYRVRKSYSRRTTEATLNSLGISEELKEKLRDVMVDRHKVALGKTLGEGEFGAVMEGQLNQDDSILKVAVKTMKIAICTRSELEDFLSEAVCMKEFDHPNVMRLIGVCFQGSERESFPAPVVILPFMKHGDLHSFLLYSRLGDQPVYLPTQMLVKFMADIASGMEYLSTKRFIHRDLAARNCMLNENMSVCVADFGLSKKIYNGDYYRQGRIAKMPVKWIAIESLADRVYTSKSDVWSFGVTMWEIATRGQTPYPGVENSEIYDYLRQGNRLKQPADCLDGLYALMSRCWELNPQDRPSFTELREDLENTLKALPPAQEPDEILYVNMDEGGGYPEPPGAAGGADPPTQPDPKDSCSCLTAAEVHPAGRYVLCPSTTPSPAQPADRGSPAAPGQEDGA
Experimental: Example A: AXL Autophosphorylation ELISA in A-172 Cells
A-172 glioblastoma cells (ATCC #CRL-1620) were seeded at 2.5×10^5 cells/well onto 24-well plates (Greiner #662165), in DMEM (Thermo Fisher #11995-040) containing 10% FBS (Thermo Fisher #26140-079), 1% MEM NEAA (Thermo Fisher #11140-050), 1% GlutaMax (Thermo Fisher #35050-061), and 1% Penicillin Streptomycin (Thermo Fisher #15140-122). A-172 cells were incubated at 37° C., 5% CO2 for 24 h and then starved for 24 h in serum-free medium. Test compounds were serially diluted to produce an 8-point dose curve in fresh serum-free medium to a final concentration of 0.3% DMSO (vehicle) and added to the cells and incubated for 1 h. Cells were then stimulated with 1 μg/mL recombinant human Gas6 (R&D Systems #885-GSB-500) for 15 min, washed with cold PBS, and immediately lysed with 150 μL of cold IX lysis buffer [20 mM Tris, 137 mM sodium chloride, 2 mM EDTA, 10% glycerol, 1% NP-40 alternative, 1 mM activated sodium orthovanadate, 1 mM PefaBloc SC (Sigma-Aldrich #11429868001), protease/phosphatase inhibitor tablet (Thermo Fisher #A32959)]. Lysates were collected and 100 μL/well added into the human phospho-AXL DuoSet IC ELISA (R&D Systems #DYC2228-2). Assay was performed according to manufacturer's instructions and sample phospho-AXL concentrations were extrapolated using human phospho-AXL control (R&D Systems #841645) as a standard. Positive control wells (100% activity) contained Gas6-stimulated, DMSO-treated cell lysates. Negative control wells (0% activity) contained Gas6-stimulated, reference inhibitor-treated cell lysates. IC50 values were calculated by nonlinear regression analysis using a 4-parameter logistic curve fit in ActivityBase XE (IDBS).

[1] = Microsomal assay, rat liver microsome stability; details: liver microsomes, pH 7.4
Experimental: (§1) Liver microsomes tissue fractions were used for in vitro assessment of metabolic stability of compounds by cytochrome P450 (CYP450) (for example, CYP3A4, CYP2C9) mediated phase I oxidation, and metabolism through other pathways. Human, mouse, rat, and dog liver microsomes tissue fractions were obtained from Corning Gentest and BioreclamationIVT.
(§2) The assay was carried out in 96-well microtiter plates. Compounds were incubated (N=l) at 37° C. in the presence of liver microsomes. Reaction mixtures (25 μL) contained a final concentration of 1 μM test compound, 0.5 mg/mL liver microsomes (LM) protein, and 1 mM NADPH in 100 mM potassium phosphate, pH 7.4 buffer with 3.3 mM MgCl2. The extent of metabolism was calculated as the disappearance of the test compound, compared to the 0-min control reaction incubations. Verapamil was included as a positive control to verily assay performance.
(§3) At each of the four time points, 150 μL of quench solution (100% acetonitrile with 0.1% formic acid) with internal standard (bucetin for positive ESI mode) was transferred to each well. Plates were sealed and centrifuged at 10° C. for 15 minutes at 4000 rpm. The supernatant was transferred to fresh plates for LC/MS/MS analysis.
(§4) All samples were analyzed on LC/MS/MS using an AB Sciex API 4000 instrument, coupled to a Shimadzu LC-20AD LC Pump system. Analytical samples were separated using a Waters Atlantis T3 dC18 reverse phase HPLC column (20 mm×2.1 mm) at a flow rate of 0.5 mL/min. The mobile phase consisted of 0.1% formic acid in water (solvent A) and 0.1% formic acid in 100% acetonitrile (solvent B).

[2] = Microsomal assay, human liver microsome stability; details: liver microsomes, pH 7.4
Experimental: as §1, §2, §3, §4

T1 sequence (P08581 25-1390): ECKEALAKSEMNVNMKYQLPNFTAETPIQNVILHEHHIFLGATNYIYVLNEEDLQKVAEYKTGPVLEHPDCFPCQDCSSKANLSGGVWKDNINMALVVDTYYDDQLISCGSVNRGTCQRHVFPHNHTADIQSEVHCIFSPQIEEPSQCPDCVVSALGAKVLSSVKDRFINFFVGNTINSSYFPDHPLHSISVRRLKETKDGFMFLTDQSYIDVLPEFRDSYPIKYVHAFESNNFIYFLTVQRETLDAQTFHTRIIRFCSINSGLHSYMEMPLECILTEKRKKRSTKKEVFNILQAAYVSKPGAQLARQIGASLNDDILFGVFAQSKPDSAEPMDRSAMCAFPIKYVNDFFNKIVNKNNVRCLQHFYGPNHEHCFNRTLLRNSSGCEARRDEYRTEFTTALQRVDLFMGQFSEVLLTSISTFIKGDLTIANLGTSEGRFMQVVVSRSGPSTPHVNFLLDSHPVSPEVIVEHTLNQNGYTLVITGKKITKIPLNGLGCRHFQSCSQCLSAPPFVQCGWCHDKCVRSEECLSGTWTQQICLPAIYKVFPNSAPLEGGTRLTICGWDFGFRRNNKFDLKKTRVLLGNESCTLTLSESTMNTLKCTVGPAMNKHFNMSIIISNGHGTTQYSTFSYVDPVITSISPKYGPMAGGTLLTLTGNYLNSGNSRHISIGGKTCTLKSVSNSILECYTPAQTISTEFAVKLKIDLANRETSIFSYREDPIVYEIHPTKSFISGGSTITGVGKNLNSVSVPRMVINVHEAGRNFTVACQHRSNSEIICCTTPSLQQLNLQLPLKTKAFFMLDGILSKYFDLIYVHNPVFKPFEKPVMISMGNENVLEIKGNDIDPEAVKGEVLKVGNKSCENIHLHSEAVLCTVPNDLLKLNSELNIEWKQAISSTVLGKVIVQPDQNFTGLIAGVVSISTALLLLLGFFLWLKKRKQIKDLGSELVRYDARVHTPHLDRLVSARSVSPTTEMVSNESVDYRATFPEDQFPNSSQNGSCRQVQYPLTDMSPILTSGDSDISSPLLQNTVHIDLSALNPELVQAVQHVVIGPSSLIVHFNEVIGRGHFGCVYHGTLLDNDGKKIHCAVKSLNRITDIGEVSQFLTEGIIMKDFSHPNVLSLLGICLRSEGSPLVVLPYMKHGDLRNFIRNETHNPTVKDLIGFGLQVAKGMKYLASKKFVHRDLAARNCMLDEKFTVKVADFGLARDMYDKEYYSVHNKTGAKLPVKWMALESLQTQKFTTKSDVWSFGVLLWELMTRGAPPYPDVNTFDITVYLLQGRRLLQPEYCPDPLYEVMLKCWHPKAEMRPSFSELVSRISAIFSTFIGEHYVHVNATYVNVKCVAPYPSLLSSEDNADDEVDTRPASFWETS

## COc1cc2nccc(Oc3ncc(NC(=O)C4(C(=O)N(C)c5ccc(F)cc5)CC4)cc3F)c2cc1C(N)=O [Compound 35, 1-N-[6-(6-Carbamoyl-7-methoxyquinolin-4-yl)oxy-5-fluoropyridin-3-yl]-1-N′-(4-fluorophenyl)-1-N′-methylcyclopropane-1,1-dicarboxamide]
Met
  IC50: > 300 nM
AXL
  IC50: > 300 nM
[1]
  half-life at 1 μM: 1.2 min
[2]
  half-life at 1 μM: 1.3 min

## COc1cc2nccc(Oc3ccc(NC(=O)C4(C(=O)N(C)c5ccc(F)cc5)CC4)cc3F)c2cc1OC [Compound 10, N-(4-((6,7-Dimethoxyquinolin-4-yl)oxy)-3-fluorophenyl)-N-(4-fluorophenyl)-N-methylcyclopropane-1,1-dicarboxamide]
Met
  IC50: > 300 nM
AXL
  IC50: > 300 nM
[1]
  half-life at 1 μM: 1.3 min
[2]
  half-life at 1 μM: 1.3 min

## CNC(=O)c1cc2c(Oc3ncc(NC(=O)C4(C(=O)N(C)c5ccc(F)cc5)CC4)cc3F)ccnc2cc1OC [Compound 34, 1-N-[5-Fluoro-6-[7-methoxy-6-(methylcarbamoyl)quinolin-4-yl]oxypyridin-3-yl]-1-N′-(4-fluorophenyl)-1-N′-methylcyclopropane-1,1-dicarboxamide]
Met
  IC50: > 300 nM
AXL
  IC50: > 300 nM
[1]
  half-life at 1 μM: 1.3 min
[2]
  half-life at 1 μM: 1.3 min

## COc1cc2nccc(Oc3ccc(NC(=O)C4(C(=O)N(C)c5ccc(F)cc5)CC4)cc3)c2cc1OC [Compound 9, 1-N-[4-(6,7-Dimethoxyquinolin-4-yl)oxyphenyl]-1-N′-(4-fluorophenyl)-1-N′-methylcyclopropane-1,1-dicarboxamide]
Met
  IC50: > 300 nM
AXL
  IC50: > 300 nM
[1]
  half-life at 1 μM: 1.4 min
[2]
  half-life at 1 μM: 1.4 min

## COc1cc2nccc(Oc3ccc(N(C)C(=O)C4(C(=O)Nc5ccc(F)cc5)CC4)cc3F)c2cc1OC [Compound 51, 1-N′-[4-(6,7-Dimethoxyquinolin-4-yl)oxy-3-fluorophenyl]-1-N-(4-fluorophenyl)-1-N′-methylcyclopropane-1,1-dicarboxamide]
Met
  IC50: > 300 nM
AXL
  IC50: > 300 nM
[1]
  half-life at 1 μM: 14.3 min
[2]
  half-life at 1 μM: 29.7 min
